Non-standard residues stand in square brackets, D forms with d. Residues, ends and D or L forms follow the SMILES beside them. Sar = CNCC(=O)O
Columns and labels:
[1] = method code SF, from DOI: 10.1021/jm9910932, PMID: 10633041; conditions: pH 7.4
[2] = method code SF-HPLC, from DOI: 10.1023/a:1015837931256, PMID: 1788153; conditions: pH 7.4
[3] = method code SF, from DOI: 10.1016/j.ejpb.2011.02.007, PMID: 21329757
[4] = method code SF-RC, from DOI: 10.1016/j.nucmedbio.2007.12.005, PMID: 18355688; conditions: pH 7.4
[5] = method code SF-AS, from PMID: 17296250; conditions: pH 7.2
[6] = method code SF-AS, from PMID: 1586384
[7] = method code SF-HPLC, from DOI: 10.1016/s0223-5234(98)80037-8; conditions: pH 7.4
[8] = not given; remark: listed apart in the source
[9] = method code SF, from DOI: 10.1021/jm0201114, PMID: 12238930; conditions: pH 7.4
[10] = not given; remark: listed apart in the source
[11] = method code SF-RC, from DOI: 10.1016/0969-8051(94)00118-4, PMID: 7550031; conditions: pH 7.4
[12] = method code SF-RC, from DOI: 10.1016/j.nucmedbio.2006.10.003, PMID: 17210465; conditions: pH 7.4
[13] = method code SF-HPLC, from DOI: 10.1248/cpb.39.1032
[14] = not given; remark: listed apart in the source
[15] = pH 7.4
[16] = method code SF, from DOI: 10.1023/a:1015958526423, PMID: 2095573
[17] = method code SF-AS, from DOI: 10.1016/0014-2999(72)90235-x, PMID: 4113999
[18] = method code SF-AS, from DOI: 10.1016/s0022-3565(25)38749-5, PMID: 8182532; conditions: pH 7.4
[19] = method code SF-HPLC, from DOI: 10.1002/ps.2780290114
[20] = method code SF-AS, from DOI: 10.1016/s0021-9673(03)00617-4, PMID: 12830921
[21] = method code SF, from DOI: 10.1021/bi00418a003, PMID: 3196678
[22] = not given; remark: listed apart in the source
[23] = method code SF, from DOI: 10.1016/j.ejmech.2008.03.040, PMID: 18511157; conditions: pH 7.4
[24] = method code SF, from Zhang, H, Oberg. B.; Liu, X.; Fan, Z.; Jia, J.; et, a. (2008). Octanol/water partition coefficient determination of novel fungicide SYP-3343 by flask-shaking method using HPLC. Journal of Safety and …; conditions: pH 5.0
[25] = method code SF, from Huang, J.; Leng, X. (1993). Interaction of rat hepatocyte and cytochrome P 450 with pyrethroids in vitro. Dong Wu Xue Bao, 39(4)418-423.
[26] = not given; remark: listed apart in the source
[27] = method code SF, from PMID: 718082
[28] = method code SF-RC, from PMID: 26778147
[29] = method code SF-AS, from DOI: 10.1248/cpb.26.2832
[30] = method code SF-HPLC, from DOI: 10.1002/jps.2600830407, PMID: 8046599; conditions: pH 7.0
[31] = method code SF, from DOI: 10.1016/j.bmcl.2013.12.011, PMID: 24342238
[32] = method code SF, from DOI: 10.1002/cmdc.201000013, PMID: 20373323; conditions: pH 7.4
[33] = not given; remark: listed apart in the source
[34] = method code SF-RC, from DOI: 10.1016/0378-5173(86)90124-9
[35] = method code SF-HPLC, from DOI: 10.1016/j.ejps.2016.07.010, PMID: 27422078; conditions: pH 7.4
[36] = not given; remark: listed apart in the source
[37] = method code SF-RC, from DOI: 10.1016/j.nucmedbio.2011.10.019, PMID: 22226022; conditions: pH 7.4
[38] = not given; remark: listed apart in the source
[39] = method code SF-AS, from PMID: 474167
[40] = method code RP-TLC, from DOI: 10.1016/s0021-9673(03)00617-4, PMID: 12830921

SMILES: CC(=O)NCC(=O)N(C)CC(=O)NC(CC(C)C)C(=O)NC(Cc1ccccc1)C(N)=O (stereo unspecified) (Ac-G[Sar]LF-NH2; configuration not given here)
- logD [1]: 1.64

SMILES: Nc1nc2c(ncn2COCCOC(=O)c2ccc(CN3CCOCC3)cc2)c(=O)[nH]1
- logD [2]: -0.05

SMILES: COc1cc2c(cc1OC)C1Cc3ccc(OC)c(OC)c3CN1CC2 (stereo unspecified)
- logP: 2.6

SMILES: C#C[C@]1(O)CC[C@H]2[C@@H]3CCC4=Cc5oncc5C[C@]4(C)[C@H]3CC[C@@]21C
- logP [3]: 4.21

SMILES: CN(Cc1ccccc1)C(=O)Cc1c(-c2ccc(Cl)cc2)nc2c(Cl)cc(Cl)cn12
- logD [4]: 2.67

SMILES: CC(C=CC1=C(C)CCC1(C)C)=CC=CC(C)=CC=NNC(N)=S
- logD [5]: 1.05

SMILES: CCOC(=O)OC(C)OC(=O)c1cn2c3c(c(N4CCN(C)CC4)c(F)cc3c1=O)OCC2C (stereo unspecified)
- logP [6]: 0.44

SMILES: COc1ccc2cc(C(C)C(=O)OCN3C(=O)c4ccccc4C3=O)ccc2c1 (stereo unspecified)
- logD [7]: 5.03

SMILES: CC(C)c1nc(N(C)S(C)(=O)=O)nc(-c2ccc(F)cc2)c1/C=C\C(O)CC(O)CC(=O)O (stereo unspecified)
- logP [8]: 2.4

SMILES: COc1cc2ncnc(N3CCN(C(=S)NCCc4ccco4)CC3)c2cc1OC
- logD [9]: 2.75

SMILES: CCN(CC)C(=O)Cc1c(-c2ccc(OC)cc2)nn2c(C)cc(C)nc12
- logP [10]: 2.44

SMILES: COc1cc2c(cc1OC)C1CC(O)(C=CI)C(CC(C)C)CN1CC2 (stereo unspecified)
- logD [11]: 3.24

SMILES: CN(C)c1ccc(C=Cc2ccc(OCCOCCOCCF)cc2)cc1
- logD [12]: 2.41

SMILES: C=C[C@@]1(C)CC(=O)[C@]2(O)[C@@]3(C)[C@@H](O)CCC(C)(C)[C@@H]3[C@H](O)[C@H](OC(C)=O)[C@@]2(C)O1
- logP [13]: 3.12

SMILES: CCN(Cc1cccnc1)C(=O)CN(c1ccc(OC)nc1)S(=O)(=O)c1ccccc1C
- logP [14]: 2.24

SMILES: Cc1c(C(=O)Nc2ccc(F)cc2)nn(-c2ccc(Cl)cc2Cl)c1-c1ccc(Br)cc1
- logD [15]: 4

SMILES: COc1cc(C)c(/C=C/C(C)=C/C=C/C(C)=C/C(=O)O)c(C)c1C
- logP [16]: 6.4

SMILES: OCCN1CCN(CC/C=C2/c3ccccc3Sc3ccc(C(F)(F)F)cc32)CC1
- logP [17]: 3.83

SMILES: O=S1(=O)c2cccc3cccc(c23)N1CCCN1CCN(c2ccc(F)cc2)CC1
- logD [18]: 3.6

SMILES: CCCCS/C(=N\c1cccnc1)SCc1ccc(C(C)(C)C)cc1
- logP [19]: 7

SMILES: CCC12CCCN3CCc4c(n(c5ccccc45)C(O)(C(=O)OC)C1)C32 (stereo unspecified)
- logP [20]: 2.96

SMILES: C[C@]12CC[C@@H]3c4ccc(CCCO)cc4CC[C@H]3[C@@H]1CC[C@@H]2O
- logP [21]: 2.7

SMILES: COc1cc(N)c(Cl)cc1C(=O)NC1CC2CCCC(C1)N2Cc1ccc(F)cc1 (stereo unspecified)
- logP [22]: 2.56

SMILES: N#Cc1c(C(=O)NC2CCCCC2)nn(-c2ccc(Cl)cc2Cl)c1-c1ccc(I)cc1
- logD [23]: 3.9

SMILES: CO/C=C(/C(=O)OC)c1ccccc1COc1cc(C)nn1-c1ccc(Cl)cc1
- logD [24]: 4.37

SMILES: CC1(C)C(C(=O)OC(C#N)c2cccc(Oc3ccccc3)c2)C1(C)C (stereo unspecified)
- logP [25]: 5.5

SMILES: Cc1ccc(N2C(=O)C(=O)N(C(=O)COc3ccc4c(C)cc(=O)oc4c3C)C2=O)cc1
- logP [26]: 0.84

SMILES: CC(=O)Nc1c(I)c(COC2C(O)C(O)OC(CO)C2O)c(I)c(COC2C(O)C(O)OC(CO)C2O)c1I (stereo unspecified)
- logP [27]: -1.92

SMILES: O=C(Nc1ccc(F)cc1)c1ccc(N2CCN(C(=O)c3ccccc3C(F)(F)F)CC2)nn1
- logP [28]: 2.08

SMILES: CC(=O)[C@H]1CC[C@H]2[C@@H]3CCC4=CC(=O)CC[C@]4(C)[C@H]3C(O)C[C@]12C (stereo partly specified)
- logP [29]: 2.36

SMILES: Cc1cn(C2CC(N=[N+]=[N-])C(COC(=O)CNC(=O)C34CC5CC(CC(C5)C3)C4)O2)c(=O)[nH]c1=O (stereo unspecified)
- logD [30]: 2.1

SMILES: COc1cc(C=CC(O)=CC(=O)C=Cc2ccc(O)c(N(C)C)c2)ccc1O
- logP [31]: 3.65

SMILES: O=C1NC(=O)C(c2ccc(Oc3ccccc3)cc2)(N2CCN(CCF)CC2)C(=O)N1
- logD [32]: 2.15

SMILES: FCCCCC1OC2(CCN(Cc3ccccc3)CC2)c2ccccc21 (stereo unspecified)
- logP [33]: 4.06

SMILES: CCCCC[C@H](O)/C=C/[C@@H]1[C@@H](C/C=C\CCCC(=O)OC)[C@@H](O)C[C@H]1O
- logP [34]: 3.07

SMILES: Cc1cc(=O)c2c(O)cc(O)c(C3CCN(C)CC3OC(=O)C(C)(C)C)c2o1 (stereo unspecified)
- logD [35]: 1.66

SMILES: O=C(NC1CCCCCCC1)NS(=O)(=O)c1cnccc1Nc1cccc(C(F)(F)F)c1
- logP [36]: 2.29

SMILES: CCCCOc1c(OC)ccc2cc(C(=O)NCc3ccc(F)cc3)c(=O)[nH]c12
- logD [37]: 4.4

SMILES: CC[C@H](C)[C@H](N)C(=O)N[C@@H](CC(C)C)C1(c2ccc(Cl)cc2)CCC1
- logP [38]: 4.75

SMILES: CC(=O)[C@@]1(O)CC[C@H]2[C@@H]3CCC4=CC(=O)CC[C@]4(C)[C@H]3CC[C@@]21C
- logP [39]: 3.19

SMILES: CCOC(=O)C1=C[C@]2(CC)CCCN3CCc4c(n1c1ccccc41)[C@@H]32
- logP [40]: 4.23

From the SangsterLogP compilation
